From ChEMBL document CHEMBL1125541, “Synthesis and antiviral evaluation of N-carboxamidine-substituted analogues of 1-beta-D-ribofuranosyl-1,2,4-triazole-3-carboxamidine hydrochloride” (J Med Chem, 1992) come the findings set out here.

In brackets after ≈: the same amount, converted by molar mass. Several values for one entry are separate records, joined by “and”; a condition that tells them apart may be missing. Equal entries are not always repeated.

Data set [1] in a line: Compound was tested in vitro for antiviral activity against sandfly fever-Sicilian (SF) virus (Concentration which was cytotoxic to 50% of uninfected cells). To be noted: read-out: TC50 (the source's name).
The nature of data set [2]: Compound was tested in vitro for antiviral activity against Punta Toro (PT) virus (Concentration which was cytotoxic to 50% of uninfected cells). As to conditions: read-out: TC50 (the source's name); call rule not given here.
Data set [3] in a line: Compound was tested in vitro for antiviral activity against Punta Toro (PT) virus (Concentration required for the 50%inhibition of virus-induced cell death); inactive. In kind it is functional.
The nature of data set [4]: Compound was tested in vitro for antiviral activity against sandfly fever-Sicilian (SF) virus (Concentration required for the 50%inhibition of virus-induced cell death); inactive. The data set is classed as functional.
Data set [5] can be described thus: Therapeutic index is expressed as ratio of TC50/IC50. As to conditions: for selectivity ratio: read-out: TI50.
For data set [6], the system named is dengue virus type 4. Briefly: Compound was tested in vitro for antiviral activity against dengue-4- virus (Concentration required for the 50%inhibition of virus-induced cell death). In kind it is functional, organism-based.
Data set [7] in a line: Compound was tested in vitro for antiviral activity against dengue-4- virus (Concentration which was cytotoxic to 50% of uninfected cells). To be noted: read-out: TC50 (the source's name).
The nature of data set [8]: Compound was tested in vitro for antiviral activity against sandfly fever-Sicilian (SF) virus (Concentration required for the 50%inhibition of virus-induced cell death). The data set is classed as functional.
Data set [9] has as its system Influenza A virus. Briefly: Compound was tested in vitro for antiviral activity against influenza B virus (Concentration required for the 50%inhibition of virus-induced cell death). In kind it is functional, organism-based.
For a further data set, the system named is Vaccinia virus. Briefly: Compound was tested in vitro for antiviral activity against vaccinia virus (Concentration required for the 50%inhibition of virus-induced cell death). The data set is classed as functional, organism-based. To be noted: Orthopoxvirus vaccinia.
For data set [10], the system named is Respiratory syncytial virus. Briefly: Compound was tested in vitro for antiviral activity against respiratory syncitial virus (Concentration required for the 50%inhibition of virus-induced cell death). In kind it is functional, organism-based. To be noted: human respiratory syncytial virus.
The nature of data set [11]: Compound was tested in vitro for antiviral activity against respiratory syncitial virus (Concentration which was cytotoxic to 50% of uninfected cells). As to conditions: read-out: TC50 (the source's name).
The nature of data set [12]: Compound was tested in vitro for antiviral activity against dengue-4-virus (Concentration which was cytotoxic to 50% of uninfected cells). As to conditions: dengue virus type 4, uninfected cells; read-out: TC50 (the source's name).
A short description of data set [13]: Compound was tested in vitro for antiviral activity against vaccinia virus (Concentration which was cytotoxic to 50% of uninfected cells). As to conditions: orthopoxvirus vaccinia, read-out: TC50 (the source's name). In kind it is organism-based.
A short description of data set [14]: Compound was tested in vitro for antiviral activity against Punta Toro (PT) virus (Concentration required for the 50%inhibition of virus-induced cell death). In kind it is functional.
Data set [15] can be described thus: Compound was tested in vitro for antiviral activity against influenza A virus (Concentration which was cytotoxic to 50% of uninfected cells). The data set is classed as organism-based. To be noted: read-out: TC50 (the source's name).
In data set [16] the test system is dengue virus type 4. Put plainly: Compound was tested in vitro for antiviral activity against dengue-4-virus (Concentration required for the 50%inhibition of virus-induced cell death). The data set is classed as functional, organism-based.
Data set [17] is described as follows: Compound was tested in vitro for antiviral activity against Punta Toro (PT) virus (Concentration required for the 50%inhibition of virus-induced cell death); IA - Viral cytopathic effect reduced 25%-49% only. In kind it is functional. (In general: Protection from cytopathic effect is a common read-out in antiviral testing.)
The test system of the next data set is Human respirovirus 3. Briefly: Compound was tested in vitro for antiviral activity against parainfluenza type 3 virus (Concentration required for the 50%inhibition of virus-induced cell death). In kind it is functional, organism-based.
The nature of data set [18]: Compound was tested in vitro for antiviral activity against parainfluenza type 3 virus (Concentration which was cytotoxic to 50% of uninfected cells). To be noted: human respirovirus 3, uninfected cells; read-out: TC50 (the source's name).
For data set [19], the system named is Influenza A virus. Briefly: Compound was tested in vitro for antiviral activity against influenza A virus (Concentration required for the 50%inhibition of virus-induced cell death). The data set is classed as functional, organism-based.

A word on the IC50: it is the concentration needed to halve the response being measured. Low values mean greater potency in that assay, high ones weaker potency in that assay.

For the compound `Cl.OC[C@H]1O[C@@H](n2cnc(C3=NCCCN3)n2)[C@H](O)[C@@H]1O`, the CC50 in data set [1] and in data set [2] was over 3200 µg/mL in each case. In addition, the IC50 result in data set [3] and in data set [4] was “Not Active” throughout.
As for `N#C/N=C(/N)c1ncn(C2O[C@H](CO)[C@@H](O)[C@H]2O)n1` (some centres not stated), the results for the CC50 in [1], in [2] and in [7] were over 1000 µg/mL, over 1000 µg/mL and over 250 µg/mL, respectively. In [5], the selectivity ratio is over 1. Further, the values for the IC50 (in the data set on dengue virus type 4 [6]; in [3]; in [4]) were 250 µg/mL (≈ 932 µM), “Not Active” and “Not Active”, respectively.
Consider `Cl.N=C(N)c1ncn([C@@H]2O[C@H](CO)[C@@H](O)[C@H]2O)n1` [TARIBAVIRIN HYDROCHLORIDE], for which the CC50 in data set [1] was 800 µg/mL; in data set [2], 752 µg/mL; in data set [11] (human respiratory syncytial virus) it was over 1000 µg/mL; in [12] it was 250 µg/mL; in [13], over 320 µg/mL; in data set [15], over 1000 µg/mL. Further, the 50% inhibitory concentration (IC50) amounted to 36 µg/mL in data set [8]; 48 µg/mL with Influenza A virus [9]; 59 µg/mL in the data set on Vaccinia virus; 16 µg/mL in [10]; 100 µg/mL in the data set on dengue virus type 4 [6]; 83 µg/mL in data set [14].
Regarding `C/N=C(\NC)c1ncn([C@@H]2O[C@H](CO)[C@@H](O)[C@H]2O)n1.Cl`, the CC50 in data set [1] is over 1000 µg/mL; in [2] it was 2900 µg/mL; in data set [12] it was over 250 µg/mL; in data set [13] it was over 1000 µg/mL. For the same compound, the 50% inhibitory concentration (IC50) in the data set with dengue virus type 4 [16] was 162 µg/mL; in data set [8] it was 94 µg/mL; with Vaccinia virus, 184 µg/mL; in data set [14], 181 µg/mL.
`CCCCCCCC/N=C(/N)c1ncn(C2O[C@H](CO)[C@@H](O)[C@H]2O)n1` (some centres not stated): the CC50 in [1] and in [2] was over 1000 µg/mL each time. Further, the concentration for half-maximal inhibition (IC50) in [8] is 339 µg/mL (≈ 954 µM); in data set [3], “Not Active”. In [5], the selectivity ratio is over 3.
Take `CCCC/N=C(/N)c1ncn(C2O[C@H](CO)[C@@H](O)[C@H]2O)n1` (some centres not stated): the figures for the CC50 in data set [1] and in [2] were over 1000 µg/mL and 660 µg/mL (≈ 2200 µM), respectively. Moreover, the concentration for half-maximal inhibition (IC50) amounted to 73 µg/mL (≈ 244 µM) in data set [8] and 41 µg/mL (≈ 137 µM) in data set [14]. Moreover, the TI50 in data set [5] was 16. Also, in [5], the selectivity ratio was determined as 13.7.
`NC(=O)CC(/N=C(/N)c1ncn(C2O[C@H](CO)[C@@H](O)[C@H]2O)n1)C(=O)O` (some centres not stated): the CC50 in [1] and in data set [2] was over 3200 µg/mL each time. Also, the half-inhibitory concentration (IC50) in data set [8] was found to be 484 µg/mL (≈ 1350 µM); in data set [14] it was 1600 µg/mL (≈ 4470 µM).
On to `COC(=N)c1ncn([C@@H]2O[C@H](CO)[C@@H](O)[C@H]2O)n1`, for which the values for the CC50 in data set [1], in data set [2] and in data set [12] were 840 µg/mL (≈ 3250 µM), 744 µg/mL (≈ 2880 µM) and over 250 µg/mL, respectively. Moreover, the results for the IC50 (in the data set on dengue virus type 4 [16]; in data set [8]; in data set [14]) were 76 µg/mL (≈ 294 µM), 98 µg/mL (≈ 380 µM) and 201 µg/mL (≈ 778 µM), respectively. Further, the TI50 in data set [5] is 8.6 and 3.7 and > 3.3.
`N/C(=N/CC(=O)O)c1ncn(C2O[C@H](CO)[C@@H](O)[C@H]2O)n1` (some centres not stated): the CC50 is over 3200 µg/mL in [1] and over 1000 µg/mL in data set [2]. Besides, the IC50 in data set [8] is 566 µg/mL (≈ 1880 µM); in data set [17] it was “Not Active”. Further, in data set [5], the selectivity ratio was over 5.66.
Regarding `Cl.OC[C@H]1O[C@@H](n2cnc(C3=NCC(O)CN3)n2)[C@H](O)[C@@H]1O` (some centres not stated), the CC50 in [1] and in data set [2] was over 320 µg/mL in each case. Moreover, the IC50 entry in [3] and in [4] was “Not Active” in each case.
For the compound `CNC(=O)c1ncn([C@@H]2O[C@H](CO)[C@@H](O)[C@H]2O)n1`, the CC50 in [1] and in [2] was over 320 µg/mL each time. The IC50 entry in data set [3] and in data set [4] was “Not Active” in each case.
As for `C/N=C(/N)c1ncn([C@@H]2O[C@H](CO)[C@@H](O)[C@H]2O)n1.Cl`, the CC50 in data set [1] is over 1000 µg/mL; in [2] it was over 1000 µg/mL; in data set [11] (respiratory syncytial virus), over 1000 µg/mL; in data set [18] it was over 1000 µg/mL; in data set [13], over 320 µg/mL; in data set [15] it was over 1000 µg/mL. Also, the IC50 in the data set with Human respirovirus 3 stood at 125 µg/mL; in data set [8] it was 104 µg/mL; in the data set on Vaccinia virus it was 198 µg/mL; in data set [10], 24 µg/mL; with Influenza A virus [19], 63 µg/mL; in data set [14], 250 µg/mL.
On to `NC(=O)CCC(/N=C(/N)c1ncn(C2O[C@H](CO)[C@@H](O)[C@H]2O)n1)C(=O)O` (some centres not stated), for which the CC50 in data set [1] and in data set [2] was over 3200 µg/mL throughout. For the same compound, the IC50 was 547 µg/mL (≈ 1470 µM) in data set [8] and 2690 µg/mL (≈ 7220 µM) in data set [14].
